Experimental data reported in publication PMC7753040, “Discovery of a Potent RIPK3 Inhibitor for the Amelioration of Necroptosis-Associated Inflammatory Injury” (Frontiers in Cell and Developmental Biology, 2020).

Legend:
RIPK3 = test system: RIPK3; set-up: method as in Mandal et al., 2014; conditions: ref Mandal et al., 2014; cited from earlier work
HeLa-MLKL (1–190) cells = experiment: MLKL polymerization-induced necroptosis in HeLa-MLKL (1-190) cells (AP20187); assay type: cell-based, human; conditions: doxycycline 1 μg/ml 24 h, 2 h pretreatment, AP20187 60 nM 24 h
From the text: Human colon cancer HT-29 and mouse fibrosarcoma L929 cells were from ATCC. Mouse embryonic fibroblasts (MEF), HT-29 cells stably expressing RIPK3-shRNA and shRNA resistant scramble Flag-tagged RIPK3 (W46), and NIH3T3 cell line stably expressing RIPK3 fused to mutant FK506-binding protein (NIH3T3-RIPK3) were kindly provided by Dr. Xiaodong Wang [National Institute of Biological Sciences (NIBS), Beijing]. HeLa-MLKL (1-190) cell line was a gift from Dr. Zhigao Wang (University of Texas Southwestern Medical Center at Dallas). These cells were cultured in Dulbecco’s modified Eagle’s medium (Hyclone) supplemeted with 10% fetal bovine serum (Invitrogen) and 2 mM L-glutamine (Invitrogen) in a humidified incubator at 37°C and 5% CO2. […]
Cells were seeded in 96-well plates and then treated as indicated. The cell viability was determined by assessment of ATP levels using the CellTiter-Glo Luminescent Cell Viability Assay kit following the manufacture’s instructions (Promega). Luminescence was calculated with SpectraMax i3x (Molecular Devices).
In vitro kinase activity assays using recombinant RIPK3 and RIPK1 were performed as described in the section “Materials and Methods.” Data represent mean value ± standard deviation. […] Cell viability was determined by measuring ATP levels. […] Cell viability was determined by measuring ATP levels. […]

Row | Structure (SMILES) | induction of on-target apoptosis (RIPK3) | polymerized MLKL-induced necroptosis (HeLa-MLKL (1–190) cells)
1 | CC(C)S(=O)(=O)c1ccc2nccc(Nc3ccc4scnc4c3)c2c1 [GSK’872] | able to induce on-target apoptosis | 
2 | COc1nccnc1NS(=O)(=O)c1ccc(NC(=O)/C=C/c2ccc([N+](=O)[O-])s2)cc1 [necrosulfonamide, reference compound] |  | blocked
